Values quoted from earlier work, collected in patent US20060106003A1, “Combination of a macrolide t-cell immunomodulator and a calciferol for the treatment of skin diseases or of inflammatory bowel disease” (priority 2003, published 2006).

System: allogeneic kidney transplantation
Settings: rat, oral administration; suppression of systemic immune response

For `C=CC[C@@H]1/C=C(\C)C[C@H](C)C[C@H](OC)[C@H]2O[C@@](O)(C(=O)C(=O)N3CCCC[C@H]3C(=O)O[C@H](/C(C)=C/[C@@H]3CC[C@@H](O)[C@H](OC)C3)[C@H](C)[C@@H](O)CC1=O)[C@H](C)C[C@@H]2OC` [tacrolimus], the “minimum effective dose (MED)” value is given as 14 mg/kg.
